{
  "source": "paper PMC4501872",
  "about": "(The Journal of steroid biochemistry and molecular biology, 2015)",
  "key": {"human SULT2A1": {"molecular_target": "T1, human SULT2A1 (Homo sapiens, UniProt Q06520)", "T1 sequence (Q06520 1-285)": "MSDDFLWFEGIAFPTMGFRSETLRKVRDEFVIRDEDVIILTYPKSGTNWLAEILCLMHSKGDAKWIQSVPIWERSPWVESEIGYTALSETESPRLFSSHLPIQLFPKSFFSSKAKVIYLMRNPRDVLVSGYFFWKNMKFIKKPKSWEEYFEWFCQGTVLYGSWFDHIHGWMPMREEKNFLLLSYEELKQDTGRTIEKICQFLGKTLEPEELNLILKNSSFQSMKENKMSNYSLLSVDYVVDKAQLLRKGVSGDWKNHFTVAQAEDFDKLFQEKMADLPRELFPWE", "type": "biochemical", "conditions": "for rate of 3-sulfate formation in the absence of celecoxib: 2 μM 35S-PAPS for 6D-E2, 20 μM PAPS for the others; for rate of 17-sulfate formation in the absence of celecoxib: 2 μM 35S-PAPS for 6D-E2, 20 μM PAPS for 17β-Eqn; for SULT2A1 enzyme activity toward the substrate: control activity"}, "[1]": {"conditions": "calculated, following a therapeutic dose of 200 mg; cited from earlier work"}, "[2]": {"conditions": "No celecoxib, 0.16 μM E2, PAPS 20 μM"}, "[3]": {"conditions": "No celecoxib, 0.4 μM E2, PAPS 20 μM"}, "[4]": {"conditions": "Celecoxib (50 μM) added after PAPS (20 μM), 0.16 μM E2"}, "[5]": {"conditions": "Celecoxib (50 μM) added after PAPS (20 μM), 0.4 μM E2"}, "[6]": {"conditions": "Celecoxib (50 μM) added before PAPS (20 μM), 0.16 μM E2"}, "[7]": {"conditions": "Celecoxib (50 μM) added before PAPS (20 μM), 0.4 μM E2"}},
  "note": "Like-named read-outs stand apart in the source and are kept apart here.",
  "data": [
    {"smiles": "C[C@]12CC[C@@H]3c4cc(O)c(O)cc4CC[C@H]3[C@@H]1CC[C@@H]2O", "note": "[2-OH-E2, 2-hydroxyestradiol]", "values": [
      {"measurement": "rate of 3-sulfate formation in the absence of celecoxib", "setting": "human SULT2A1; 0.4 μM substrate", "result": 2, "unit": "pmol/min/mg protein"}
    ]},
    {"smiles": "C[C@]12CC[C@@H]3c4ccc(O)c(O)c4CC[C@H]3[C@@H]1CC[C@@H]2O", "note": "[4-OH-E2, 4-hydroxyestradiol]", "values": [
      {"measurement": "rate of 3-sulfate formation in the absence of celecoxib", "setting": "human SULT2A1; 0.4 μM substrate", "result": 15, "unit": "pmol/min/mg protein"}
    ]},
    {"smiles": "C[C@]12CC[C@@H]3c4ccc(O)cc4C=C[C@H]3[C@@H]1CC[C@@H]2O", "note": "[6D-E2, 6-dehydroestradiol]", "values": [
      {"measurement": "rate of 17-sulfate formation in the absence of celecoxib", "setting": "human SULT2A1; 0.4 μM substrate", "result": 2, "unit": "pmol/min/mg protein"},
      {"measurement": "rate of 3-sulfate formation in the absence of celecoxib", "setting": "human SULT2A1; 0.4 μM substrate", "result": 51, "unit": "pmol/min/mg protein"}
    ]},
    {"smiles": "C[C@]12CC=C3c4ccc(O)cc4CC[C@H]3[C@@H]1CC[C@@H]2O", "note": "[9D-E2, 9-dehydroestradiol]", "values": [
      {"measurement": "rate of 3-sulfate formation in the absence of celecoxib", "setting": "human SULT2A1; 0.4 μM substrate", "result": 14, "unit": "pmol/min/mg protein"}
    ]},
    {"smiles": "C[C@]12CC[C@@H]3c4ccc(O)cc4CC[C@H]3[C@@H]1CC[C@@H]2O", "note": "[17β-E2, 17β-estradiol]", "values": [
      {"measurement": "17-sulfate produced relative to 3-sulfate in the absence of celecoxib", "setting": "human SULT2A1; 0.4 μM substrate, Figure 6G", "result": "around 76 times"},
      {"measurement": "Product formed, 3-sulfate", "setting": "human SULT2A1; [2]", "result": 150, "unit": "pmol/min/mg protein"},
      {"measurement": "Product formed, 17-sulfate", "setting": "human SULT2A1; [2]", "result": "Not detected"},
      {"measurement": "Product formed, Total sulfates", "setting": "human SULT2A1; [2]", "result": 150, "unit": "pmol/min/mg protein"},
      {"measurement": "Product formed, 3-sulfate", "setting": "human SULT2A1; [3]", "result": 306, "unit": "pmol/min/mg protein"},
      {"measurement": "Product formed, 17-sulfate", "setting": "human SULT2A1; [3]", "result": "Not detected"},
      {"measurement": "Product formed, Total sulfates", "setting": "human SULT2A1; [3]", "result": 306, "unit": "pmol/min/mg protein"}
    ]},
    {"smiles": "C[C@]12CC[C@H]3C(=CCc4cc(O)ccc43)[C@@H]1CC[C@@H]2O", "note": "[17β-Eq, 17β-dihydroequilin]", "values": [
      {"measurement": "rate of 3-sulfate formation in the absence of celecoxib", "setting": "human SULT2A1; 0.4 μM substrate", "result": 46, "unit": "pmol/min/mg protein"}
    ]},
    {"smiles": "C[C@]12CCc3c(ccc4cc(O)ccc34)[C@@H]1CC[C@@H]2O", "note": "[17β-Eqn, 17β-dihydroequilenin]", "values": [
      {"measurement": "rate of 17-sulfate formation in the absence of celecoxib", "setting": "human SULT2A1; 0.4 μM substrate", "result": 11.4, "unit": "pmol/min/mg protein"},
      {"measurement": "rate of 3-sulfate formation in the absence of celecoxib", "setting": "human SULT2A1; 0.4 μM substrate", "result": 56, "unit": "pmol/min/mg protein"}
    ]},
    {"smiles": "C[C@]12CC[C@H]3[C@@H](CC=C4C[C@@H](O)CC[C@@]43C)[C@@H]1CC[C@@H]2O", "note": "[AD, 5-androsten-3β,17β-diol]", "values": [
      {"measurement": "SULT2A1 enzyme activity toward the substrate", "setting": "human SULT2A1; 0.4 μM substrate", "result": "8–9 nmol sulfate/min/mg protein"}
    ]},
    {"smiles": "C[C@]12CC[C@H](O)CC1=CC[C@@H]1[C@@H]2CC[C@]2(C)C(=O)CC[C@@H]12", "note": "[DHEA, dehydroepiandrosterone]", "values": [
      {"measurement": "SULT2A1 enzyme activity toward the substrate", "setting": "human SULT2A1; 0.4 μM substrate", "result": "8–9 nmol sulfate/min/mg protein"}
    ]},
    {"smiles": "C[C@]12CC[C@H]3[C@@H](CCC4=CC(=O)CC[C@@]43C)[C@@H]1CC[C@H]2O", "note": "[Epi-T, epi-testosterone]", "values": [
      {"measurement": "SULT2A1 enzyme activity toward the substrate", "setting": "human SULT2A1; 0.4 μM substrate", "result": "8–9 nmol sulfate/min/mg protein"},
      {"measurement": "rate of sulfonation of Epi-T relative to T", "setting": "human SULT2A1; control activities, 0.4 μM substrate", "result": 7, "unit": "times"}
    ]},
    {"smiles": "Cc1ccc(-c2cc(C(F)(F)F)nn2-c2ccc(S(N)(=O)=O)cc2)cc1", "note": "[celecoxib]", "values": [
      {"measurement": "effect on sulfonation of E1", "setting": "human SULT2A1; 0–80 μM celecoxib, 0.4 μM E1, p > 0.05, ANOVA", "result": "not affected significantly"},
      {"measurement": "celecoxib concentration at which 4-OH-E2 17-sulfate and 3-sulfate curves cross", "setting": "human SULT2A1; 0.4 μM 4-OH-E2, 20 μM PAPS", "result": "approximately 30 μM"},
      {"measurement": "enhancement of total sulfate product formation from 6D-E2", "setting": "human SULT2A1; 50 μM celecoxib, 0.4 μM 6D-E2", "result": "over 8 fold"},
      {"measurement": "increase of total product formation from 9D-E2", "setting": "human SULT2A1; 80 μM celecoxib, 0.4 μM 9D-E2", "result": 9.4, "unit": "times"},
      {"measurement": "stimulation of 17β-Eqn–17-sulfate formation compared with absence of celecoxib", "setting": "human SULT2A1; 80 μM celecoxib, 0.4 μM 17β-Eqn", "result": 34, "unit": "fold"},
      {"measurement": "celecoxib concentrations at which 17β-E2–3-S decreased", "setting": "human SULT2A1; 0.05, 0.2 and 0.4 μM 17β-E2", "result": "≥ 50", "unit": "µM"},
      {"measurement": "celecoxib concentration at which stimulation of 17β-E2–17-S formation peaked", "setting": "human SULT2A1; 0.2 and 0.4 μM 17β-E2", "result": 50, "unit": "µM"},
      {"measurement": "Product formed, 3-sulfate", "setting": "human SULT2A1; [4]", "result": 85, "unit": "pmol/min/mg protein"},
      {"measurement": "Product formed, 17-sulfate", "setting": "human SULT2A1; [4]", "result": 199, "unit": "pmol/min/mg protein"},
      {"measurement": "Product formed, Total sulfates", "setting": "human SULT2A1; [4]", "result": 284, "unit": "pmol/min/mg protein"},
      {"measurement": "Product formed, 3-sulfate", "setting": "human SULT2A1; [5]", "result": 177, "unit": "pmol/min/mg protein"},
      {"measurement": "Product formed, 17-sulfate", "setting": "human SULT2A1; [5]", "result": 387, "unit": "pmol/min/mg protein"},
      {"measurement": "Product formed, Total sulfates", "setting": "human SULT2A1; [5]", "result": 564, "unit": "pmol/min/mg protein"},
      {"measurement": "Product formed, 3-sulfate", "setting": "human SULT2A1; [6]", "result": 155, "unit": "pmol/min/mg protein"},
      {"measurement": "Product formed, 17-sulfate", "setting": "human SULT2A1; [6]", "result": 432, "unit": "pmol/min/mg protein"},
      {"measurement": "Product formed, Total sulfates", "setting": "human SULT2A1; [6]", "result": 587, "unit": "pmol/min/mg protein"},
      {"measurement": "Product formed, 3-sulfate", "setting": "human SULT2A1; [7]", "result": 363, "unit": "pmol/min/mg protein"},
      {"measurement": "Product formed, 17-sulfate", "setting": "human SULT2A1; [7]", "result": 1076, "unit": "pmol/min/mg protein"},
      {"measurement": "Product formed, Total sulfates", "setting": "human SULT2A1; [7]", "result": 1439, "unit": "pmol/min/mg protein"},
      {"measurement": "effect on sulfonation of DHEA or AD at low concentrations", "setting": "human SULT2A1; celecoxib 0–40 μM", "result": "did not affect"},
      {"measurement": "effect on 17β-Eq-3-sulfate formation", "setting": "human SULT2A1; celecoxib range studied (0–80 μM), 0.4 μM 17β-Eq", "result": "No inhibition"},
      {"measurement": "rate of 3-sulfate formation when inhibited by celecoxib (Figure 6G substrate)", "setting": "human SULT2A1; data not shown", "result": "< 1", "unit": "pmol/min/mg protein"},
      {"measurement": "increase of total sulfonation of 6D-E2, 17β-Eqn and 9D-E2", "setting": "human SULT2A1; summary in discussion", "result": "over 8 fold"},
      {"measurement": "effect on formation of 3Me-E2–17β-sulfate", "setting": "human SULT2A1; up to 80 μM celecoxib, 0.4 μM 3Me-E2, not saturated at 80 μM", "result": "stimulated the formation of 3Me-E2–17β-sulfate in a concentration dependent manner"},
      {"measurement": "maximum liver concentration of celecoxib", "setting": "[1]", "result": 230, "unit": "µM"}
    ]}
  ]
}
